Values after ≈ are worked out from the molar mass of the structure shown.
Tests used:
Experiment in all cases: In vitro antibacterial evaluation: minimum inhibitory concentration (MIC), broth dilution method
Format in all cases: cell-based
Staphylococcus sp. = details: 18 hours at 35° C.
Summary of the method: (§1)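 An MIC is reported for each organism as the least concentration giving inhibition, using broth dilution over 64-0.06 μg/mL with a 5×10^5 CFU/mL inoculum.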

Enterococcus sp. = tested on: Enterococcus sp.
Summary of the method: as §1

Escherichia coli [1] = tested on: Escherichia coli
Summary of the method: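 Susceptibility determined by NCCLS-recommended broth dilution (M7-A2), Muller-Hinton II […]. Concentration span 64-0.06 μg/mL, inoculum 5×10^5 CFU/mL. Isolates include strains resistant to methicillin, penicillin and/or vancomycin.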

Escherichia coli [2] = tested on: Escherichia coli; remark: listed apart in the source

MIC Coagulase Negative Staphylococcus (GC 4547) (Staphylococcus sp.) [µg/mL]	MIC Coagulase Negative Staphylococcus (GC 4547) (Staphylococcus sp.; broth dilution) [µg/mL]	MIC Coagulase Negative Staphylococcus (GC 4548) (Staphylococcus sp.) [µg/mL]	MIC Coagulase Negative Staphylococcus (GC 4548) (Staphylococcus sp.; broth dilution) [µg/mL]	MIC Coagulase Negative Staphylococcus (GC 4549) (Staphylococcus sp.) [µg/mL]	MIC Coagulase Negative Staphylococcus (GC 4549) (Staphylococcus sp.; broth dilution) [µg/mL]	MIC Coagulase Negative Staphylococcus (GC 4551) (Staphylococcus sp.) [µg/mL]	MIC Coagulase Negative Staphylococcus (GC 4551) (Staphylococcus sp.; broth dilution) [µg/mL]	MIC Staphylococcus aureus (ATCC 29213) (Staphylococcus sp.) [µg/mL]	MIC Staphylococcus aureus (ATCC 29213) (Staphylococcus sp.; broth dilution) [µg/mL]	MIC Staphylococcus aureus (GC 1131) (Staphylococcus sp.) [µg/mL]	MIC Staphylococcus aureus (GC 1131) (Staphylococcus sp.; broth dilution) [µg/mL]	MIC Staphylococcus aureus (GC 4541) (Staphylococcus sp.) [µg/mL]	MIC Staphylococcus aureus (GC 4541) (Staphylococcus sp.; broth dilution) [µg/mL]	MIC Staphylococcus aureus (GC 4542) (Staphylococcus sp.) [µg/mL]	MIC Staphylococcus aureus (GC 4542) (Staphylococcus sp.; broth dilution) [µg/mL]	MIC Staphylococcus aureus (GC 4544) (Staphylococcus sp.) [µg/mL]	MIC Staphylococcus aureus (GC 4544) (Staphylococcus sp.; broth dilution) [µg/mL]	MIC Staphylococcus aureus (GC 4545) (Staphylococcus sp.) [µg/mL]	MIC Staphylococcus aureus (GC 4545) (Staphylococcus sp.; broth dilution) [µg/mL]	SMILES	also measured
8 (≈ 5.77 µM)	8 (≈ 5.77 µM)	4 (≈ 2.89 µM)	4 (≈ 2.89 µM)	4 (≈ 2.89 µM)	4 (≈ 2.89 µM)	8 (≈ 5.77 µM)	8 (≈ 5.77 µM)	16 (≈ 11.5 µM)	16 (≈ 11.5 µM)	32 (≈ 23.1 µM)	32 (≈ 23.1 µM)	8 (≈ 5.77 µM)	8 (≈ 5.77 µM)	8 (≈ 5.77 µM)	8 (≈ 5.77 µM)	8 (≈ 5.77 µM)	8 (≈ 5.77 µM)	8 (≈ 5.77 µM)	8 (≈ 5.77 µM)	CC(C)CC(=O)OC1C(O)C(CO)OC(OC2C(CO)OC(Oc3ccc(CC4NC(=O)C(C(C)c5cccs5)NC(=O)CNC(=O)C(CO)NC(=O)C(C(O)C5CNC(=N)N5C5OC(CO)C(O)C(O)C5O)NC(=O)C(C(O)C5CNC(=N)N5)NC4=O)cc3)C(O)C2O)C1O (centres unmarked) [Example 265b]	MIC Staphylococcus aureus-SMITH (GC 4543) (Staphylococcus sp.): 8 µg/mL (≈ 5.77 µM); MIC Staphylococcus aureus-SMITH (GC 4543) (Staphylococcus sp.; broth dilution): 8 µg/mL (≈ 5.77 µM); MIC Staphylococcus haemolyticus (GC 4546) (Staphylococcus sp.): 8 µg/mL (≈ 5.77 µM); MIC Staphylococcus haemolyticus (GC 4546) (Staphylococcus sp.; broth dilution): 8 µg/mL (≈ 5.77 µM); MIC Enterococcus avium (GC 4558) (Enterococcus sp.): 64 µg/mL (≈ 46.2 µM); MIC Enterococcus faecalis (ATCC 29212) (Enterococcus sp.): 64 µg/mL (≈ 46.2 µM); MIC Enterococcus faecalis (GC 4553) (Enterococcus sp.): 64 µg/mL (≈ 46.2 µM); MIC Enterococcus faecalis (GC 4554) (Enterococcus sp.): >64 µg/mL; MIC Enterococcus faecium (GC 2243) (Enterococcus sp.): 64 µg/mL (≈ 46.2 µM); MIC Enterococcus faecium (GC 4556) (Enterococcus sp.): 64 µg/mL (≈ 46.2 µM); MIC Enterococcus faecium (GC 4557) (Enterococcus sp.): 8 µg/mL (≈ 5.77 µM); MIC Enterococcus faecalis (GC 2242) (Enterococcus sp.; broth dilution, 18 hours at 35° C., strain GC 2242): 4 µg/mL (≈ 2.89 µM); MIC Enterococcus faecalis (GC 2691) (Enterococcus sp.; broth dilution, 18 hours at 35° C., strain GC 2691): 64 µg/mL (≈ 46.2 µM); MIC Escherichia coli (GC 4559) (Escherichia coli [1]): 64 µg/mL (≈ 46.2 µM); MIC Escherichia coli (GC 4560) (Escherichia coli [1]): 4 µg/mL (≈ 2.89 µM); MIC Escherichia coli (ATCC 25922) (Escherichia coli [2]): >64 µg/mL
2 (≈ 1.44 µM)	2 (≈ 1.44 µM)	2 (≈ 1.44 µM)	2 (≈ 1.44 µM)	2 (≈ 1.44 µM)	2 (≈ 1.44 µM)	4 (≈ 2.87 µM)	4 (≈ 2.87 µM)	4 (≈ 2.87 µM)	4 (≈ 2.87 µM)	4 (≈ 2.87 µM)	4 (≈ 2.87 µM)	4 (≈ 2.87 µM)	4 (≈ 2.87 µM)	4 (≈ 2.87 µM)	4 (≈ 2.87 µM)	4 (≈ 2.87 µM)	4 (≈ 2.87 µM)	4 (≈ 2.87 µM)	4 (≈ 2.87 µM)	CC(C)CCC(=O)OC1C(OC2C(CO)OC(Oc3ccc(CC4NC(=O)C(C(C)c5ccccc5)NC(=O)CNC(=O)C(CO)NC(=O)C(C(O)C5CNC(=N)N5C5OC(CO)C(O)C(O)C5O)NC(=O)C(C(O)C5CNC(=N)N5)NC4=O)cc3)C(O)C2O)OC(CO)C(O)C1O (stereo not drawn) [Example 270a, Cyclo[glycyl-β-methylphenylalanyl-O-[4-O-[2-O-(4-methylpentanoyl)hexopyranosyl]-hexopyranosyl]tyrosyl-3-(2-iminoimidazolidin-4-yl)seryl-3-(3-hexopyranosyl-2-iminoimidazolidin-4-yl)serylseryl]]	MIC Staphylococcus aureus-SMITH (GC 4543) (Staphylococcus sp.): 4 µg/mL (≈ 2.87 µM); MIC Staphylococcus aureus-SMITH (GC 4543) (Staphylococcus sp.; broth dilution): 4 µg/mL (≈ 2.87 µM); MIC Staphylococcus haemolyticus (GC 4546) (Staphylococcus sp.): 2 µg/mL (≈ 1.44 µM); MIC Staphylococcus haemolyticus (GC 4546) (Staphylococcus sp.; broth dilution): 2 µg/mL (≈ 1.44 µM); MIC Enterococcus avium (GC 4558) (Enterococcus sp.): 16 µg/mL (≈ 11.5 µM); MIC Enterococcus faecalis (ATCC 29212) (Enterococcus sp.): 16 µg/mL (≈ 11.5 µM); MIC Enterococcus faecalis (GC 4553) (Enterococcus sp.): 16 µg/mL (≈ 11.5 µM); MIC Enterococcus faecalis (GC 4554) (Enterococcus sp.): 32 µg/mL (≈ 23 µM); MIC Enterococcus faecium (GC 2243) (Enterococcus sp.): 16 µg/mL (≈ 11.5 µM); MIC Enterococcus faecium (GC 4556) (Enterococcus sp.): 16 µg/mL (≈ 11.5 µM); MIC Enterococcus faecium (GC 4557) (Enterococcus sp.): 4 µg/mL (≈ 2.87 µM); MIC Escherichia coli (GC 4559) (Escherichia coli [1]): >64 µg/mL; MIC Escherichia coli (GC 4560) (Escherichia coli [1]): 2 µg/mL (≈ 1.44 µM); MIC Escherichia coli (ATCC 25922) (Escherichia coli [2]): >64 µg/mL
4 (≈ 2.79 µM)	4 (≈ 2.79 µM)	4 (≈ 2.79 µM)	4 (≈ 2.79 µM)	4 (≈ 2.79 µM)	4 (≈ 2.79 µM)	4 (≈ 2.79 µM)	4 (≈ 2.79 µM)	8 (≈ 5.57 µM)	8 (≈ 5.57 µM)	8 (≈ 5.57 µM)	8 (≈ 5.57 µM)	8 (≈ 5.57 µM)	8 (≈ 5.57 µM)	8 (≈ 5.57 µM)	8 (≈ 5.57 µM)	8 (≈ 5.57 µM)	8 (≈ 5.57 µM)	4 (≈ 2.79 µM)	4 (≈ 2.79 µM)	CC(=O)OCC1OC(OC2C(CO)OC(Oc3ccc(CC4NC(=O)C(C(C)c5ccccc5)NC(=O)CNC(=O)C(CO)NC(=O)C(C(O)C5CNC(=N)N5C5OC(CO)C(O)C(O)C5O)NC(=O)C(C(O)C5CNC(=N)N5)NC4=O)cc3)C(O)C2O)C(O)C(OC(=O)CCC(C)C)C1O (stereo not drawn) [Example 270b, Cyclo[glycyl-β-methylphenylalanyl-O-[4-O-[6-O-acetyl-3-O-(4-methylpentanoyl)hexopyranosyl]hexopyranosyl]tyrosyl-3-(2-iminoimidazolidin-4-yl)seryl-3-(3-hexopyranosyl-2-iminoimidazolidin-4-yl)serylseryl]]	MIC Staphylococcus aureus-SMITH (GC 4543) (Staphylococcus sp.): 4 µg/mL (≈ 2.79 µM); MIC Staphylococcus aureus-SMITH (GC 4543) (Staphylococcus sp.; broth dilution): 4 µg/mL (≈ 2.79 µM); MIC Staphylococcus haemolyticus (GC 4546) (Staphylococcus sp.): 4 µg/mL (≈ 2.79 µM); MIC Staphylococcus haemolyticus (GC 4546) (Staphylococcus sp.; broth dilution): 4 µg/mL (≈ 2.79 µM); MIC Enterococcus avium (GC 4558) (Enterococcus sp.): 32 µg/mL (≈ 22.3 µM); MIC Enterococcus faecalis (ATCC 29212) (Enterococcus sp.): 32 µg/mL (≈ 22.3 µM); MIC Enterococcus faecalis (GC 4553) (Enterococcus sp.): 32 µg/mL (≈ 22.3 µM); MIC Enterococcus faecalis (GC 4554) (Enterococcus sp.): 32 µg/mL (≈ 22.3 µM); MIC Enterococcus faecium (GC 2243) (Enterococcus sp.): 32 µg/mL (≈ 22.3 µM); MIC Enterococcus faecium (GC 4556) (Enterococcus sp.): 32 µg/mL (≈ 22.3 µM); MIC Enterococcus faecium (GC 4557) (Enterococcus sp.): 8 µg/mL (≈ 5.57 µM); MIC Escherichia coli (GC 4559) (Escherichia coli [1]): >64 µg/mL; MIC Escherichia coli (GC 4560) (Escherichia coli [1]): 4 µg/mL (≈ 2.79 µM); MIC Escherichia coli (ATCC 25922) (Escherichia coli [2]): >64 µg/mL

Reference: patent US8247211B2, “Glycopeptide antibiotics” (American Cyanamid Company, priority 2001, dated 2012)
